For test [1], the system named is HMC1. Nature of the test: Inhibition of A23187-induced IL-6 production in human HMC1 cells incubated for 30 mins prior to A23187 challenge measured after 24 hrs by ELISA. Format: functional, cell-based. In general terms: An ELISA detects its analyte on a solid surface through an enzyme-linked reagent.
Test [2] can be described thus: Cytotoxicity against human HMC1 cells assessed as cell viability. Format: cell-based.

The structures appear in SMILES notation. A value given as a limit tells only on which side of the number the result lay.

As for `Oc1ccc2c(c1)OC[C@H]1c3cc4c(cc3O[C@@H]21)OCO4` [MAACKIAIN], the figures for the concentration for half-maximal inhibition (IC50) in test [1] and in test [2] were 3.01 µM and above 20 µM, respectively.

`COc1ccc(-c2cc3ccc(O)cc3o2)c(O)c1`: the IC50 (usually the midpoint of a concentration-inhibition curve) in test [1] is 4.02 µM; in test [2], above 20 µM.

As for `CC(C)=CCc1cc(C2CC(=O)c3ccc(O)c(CC=C(C)C)c3O2)c(O)cc1O` (stereo not drawn), the IC50 was 1.62 µM in test [1] and above 20 µM in test [2].

With `CC(C)=CCc1cc([C@@H]2CC(=O)c3ccc(O)c(CC=C(C)C)c3O2)ccc1O` [GLABROL], the values for the IC50 in test [1] and in test [2] were 0.73 µM and above 20 µM, respectively.

The values above are taken from ChEMBL document CHEMBL3351288, “Flavonoids and arylbenzofurans from the rhizomes and roots of Sophora tonkinensis with IL-6 production inhibitory activity” (Bioorg Med Chem Lett, 2014).
